Assays:
[1] = tested on: Balb/c mice with ovalbumin-induced food allergy; test: Frequency of diarrhea, ovalbumin-induced food allergy mice; assay type: in vivo, mouse; details: OVA food allergy; oral daily 14 days from day 14, 10 mg/kg (dexamethasone 2 mg/kg); measured day 28; vs vehicle group
Method: A 0.2 mL dose of 10 μg ovalbumin (OVA) and 1 mg Alum mixture was administered to 6-week-old female Balb/c mice (Japan SLC Inc.) (day 0 of the example). Alum was used as an adjuvant. Seven days later, the Balb/c mice were immunized again with a 0.2 mL injection of the above mixture. Starting on day 14, mice were orally treated with 10 mg/kg of norathyriol, 10 mg/kg of mangiferin 8a, 10 mg/kg of tofacitinib (JAK inhibitor), 2 mg/kg of dexamethasone (steroid) and 10 mg/kg of olopatadine (antihistamine) daily for 14 consecutive days. Starting on day 14, 10 mg OVA was administered orally every other day […], and the frequency of diarrhea was measured after the final administration on day 28. Note that tofacitinib, dexamethasone, and olopatadine are currently in clinical use in food allergy and were used as control drugs in this example.
The group that was just immunized with OVA is called the subject group, the one that received norathyriol is called the norathyriol group, the one that received mangiferin 8a is called the mangiferin 8a group, the one that received tofacitinib is called the tofacitinib group, the one that received dexamethasone is called the dexamethasone group, and the one that received olopatadine is called the olopatadine group. Each group consisted of five animals.

mouse macrophages = test: LPS-stimulated macrophage proliferation (trypan blue); assay type: cell-based; details: 10 μM compound, 10 μg/mL LPS 3 days, control 10.65×10^4, LPS 19×10^4
Method: The inhibitory effect of the compound on macrophage cell proliferation was examined using mouse macrophages.
Macrophages collected from mice were cultured in RPMI 1640 medium for 1 day. Then, 10 μM mangiferin 8a and 10 μM norathyriol were added to macrophages, and after 1 day of culture, 10 μg/mL of lipopolysaccharide (LPS) was added to each for 3 days. After 3 days of incubation, the number of viable cells was determined by the trypan blue dye method. Note that LPS was used as an allergic inflammation inducer.
Referring to FIG. 49, the horizontal axis indicates treatment with each compound and the vertical axis indicates cell count (1×10^4 cells/mL). Only 0.5% DMSO in PBS, which was used to dissolve the reagent (compound), was added as control. The LPS group is referred to as the LPS group with 10 μg/mL LPS, the mangiferin 8a group is referred to as the mangiferin 8a group with LPS and mangiferin 8a, and the norathyriol group is referred to as the norathyriol group with LPS and norathyriol.

NIK = target: T1, NIK (Mus musculus, UniProt Q9WUL6); test: BAFF-induced NIK activation in B cells (Western blotting, phospho-NIK); assay type: cell-based
T1 construct: Proteins were extracted with cell lysate and used as samples; endogenous in cells; host or cells: primary splenic B cells from 6-week-old male Balb/c mice
Method: Spleens were harvested from 6-week-old male Balb/c mice and B cells were isolated. After isolation, the cells were seeded in […] dish and cultured in RPMI 1640 medium for 1 day and used as control. In addition, B cells were seeded into 100 mm^2 dish, and after 1 day of culture, 100 ng/mL BAFF was added and cultured for 1 h. Furthermore, B cells were seeded in […] dish, and after 1 day of culture, 100 μM mangiferin, 10 μM mangiferin 8a, 10 μM norathyriol, 20 μM 1,3,5,6-tetrahydroxyxanthone, 10 μM xanthohydrol, 10 μM of α-mangostin, and 10 μM of γ-mangostin were added to B cells, and after 23 h, 100 ng/mL BAFF was added to each, and the cells were incubated for 1 h. All were incubated at 37° C. and 5% CO2.
(§1) Proteins were extracted with cell lysate and used as samples. Each sample was transferred to a PVDF membrane after SDSPAGE and assayed with anti-phospho-NIK, anti-NIK, anti-NF-κB p52, anti-NF-κB p65 and anti-Lamin antibodies.
(§2) The antibody species is indicated in the vertical direction. Specifically, in the case of anti-phospho-NIK antibody (described as “Phospho-NIK”), anti-NIK antibody (described as “NIK”), anti-NF-κB p52 antibody (described as “NF-κB p52 nuclear”), anti-NF-κB p65 antibody (described as “NF-κB p65 nuclear”) and anti-Lamin antibody (described as “Lamin”).

[2] = tested on: Balb/c mice with atopic dermatitis (MC903 applied to the auricle); test: Auricular swelling in MC903-induced atopic dermatitis mice; assay type: in vivo, mouse
Method: MC903 at 2 nM was applied to the right auricle of a 6-week-old male Balb/c (Japan SLC Inc.). Starting 8 h later, 5% norathyriol aqueous solution (1 mL of ethanol containing […] of norathyriol), betamethasone ointment, and delgocitinib ointment were applied to the auricle for 7 days. The measurement of auricular skin swelling was calculated by calipers. The day on which the first application of the compound was made was defined as day 0. Betamethasone and delgocitinib are currently in clinical use in atopic dermatitis and were used as control drugs in this example.
Those without MC903 or norathyriol are called the control group, those with MC903 are called the vehicle group, those with 5% norathyriol aqueous are called the 5% norathyriol-applied group, those with betamethasone ointment are called the betamethasone-applied group, and those with delgocitinib ointment is referred to as the delgocitinib-applied group.
Solid white circles indicate the control group (labeled “control”). Solid black squares indicate the vehicle group (labeled “vehicle”), dotted black diamonds indicate the 5% norathyriol aqueous application group (labeled “MC903+5% norathyriol”), dashed black crosses indicate the betamethasone application group (labeled “MC903+betamethasone ointment”), and single-dotted black dots indicate the delgocitinib application group (labeled “MC903+delgocitinib ointment”).

NF-κB p52 = test: LPS-stimulated B cells, nuclear NF-κB p52 (Western blotting); assay type: cell-based, mouse; details: 10 μM compound; vs 10 μg/mL LPS
Method: Spleens were harvested from 6-week-old male Balb/c mice and B cells were isolated. After isolation, the cells were seeded in […] dish and cultured in RPMI 1640 medium for 1 day and used as control. In addition, B cells were seeded into 100 mm^2 dish, and after 1 day of culture, 10 μg/mL LPS was added and cultured for 1 h. Furthermore, B cells were seeded in […] dish, and after 1 day of culture, 10 μM mangiferin 8a and 10 μM norathyriol were added to B cells, and after 23 h, 10 μg/mL LPS was added to each, and the cells were incubated for 1 h. All were incubated at 37° C. and 5% CO2.
as §1, §2

T1 sequence (Q9WUL6 whole entry): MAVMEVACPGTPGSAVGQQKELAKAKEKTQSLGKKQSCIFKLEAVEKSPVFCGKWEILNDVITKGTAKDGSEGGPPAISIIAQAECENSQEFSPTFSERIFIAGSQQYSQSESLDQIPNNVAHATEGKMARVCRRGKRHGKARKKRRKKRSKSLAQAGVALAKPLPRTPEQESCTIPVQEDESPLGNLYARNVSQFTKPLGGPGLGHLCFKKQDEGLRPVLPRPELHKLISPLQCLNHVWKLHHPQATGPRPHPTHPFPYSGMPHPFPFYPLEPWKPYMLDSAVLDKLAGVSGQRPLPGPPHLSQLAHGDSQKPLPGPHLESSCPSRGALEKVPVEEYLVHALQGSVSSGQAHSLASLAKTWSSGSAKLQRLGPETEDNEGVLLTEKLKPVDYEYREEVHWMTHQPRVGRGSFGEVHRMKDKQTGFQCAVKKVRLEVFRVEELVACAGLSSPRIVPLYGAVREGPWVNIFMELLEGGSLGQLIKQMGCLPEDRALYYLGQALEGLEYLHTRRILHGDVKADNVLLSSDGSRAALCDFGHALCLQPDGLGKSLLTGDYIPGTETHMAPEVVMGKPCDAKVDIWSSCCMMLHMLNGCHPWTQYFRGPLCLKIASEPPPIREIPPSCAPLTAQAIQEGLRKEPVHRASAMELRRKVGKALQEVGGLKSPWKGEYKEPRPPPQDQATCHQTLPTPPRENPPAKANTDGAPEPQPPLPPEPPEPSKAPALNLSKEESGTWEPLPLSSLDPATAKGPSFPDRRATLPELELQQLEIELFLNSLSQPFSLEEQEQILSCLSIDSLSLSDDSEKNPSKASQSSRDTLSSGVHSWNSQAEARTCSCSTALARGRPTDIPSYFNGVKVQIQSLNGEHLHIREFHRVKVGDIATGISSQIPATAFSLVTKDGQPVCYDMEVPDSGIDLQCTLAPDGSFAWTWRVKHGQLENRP

## O=c1c2cc(O)c(O)cc2oc2cc(O)cc(O)c12 [norathyriol, 1,3,6,7-tetrahydroxyxanthone]
[1]
  frequency of diarrhea: showed a marked decrease in the frequency of diarrhea
Mouse macrophages
  number of viable cells (cell count): 7.5×10^4 cells/mL
NIK; 100 ng/mL BAFF 1 h after 23 h compound, 100 μM mangiferin, 20 μM 1,3,5,6-tetrahydroxyxanthone, 10 μM others
  phospho-NIK band (immunoblotting): fainter
NIK; general statement in the description, referring to the examples
  inhibition of NIK activity compared with mangiferin: more inhibition of NIK activity than mangiferin
[2]; male Balb/c, MC903 on right auricle, 5% norathyriol aqueous solution, betamethasone ointment or delgocitinib ointment applied to auricle for 7 days, vs vehicle group
  auricular skin swelling: swelling was significantly reduced
[2]; right auricle at day 7, topical 5% norathyriol aqueous, betamethasone ointment, delgocitinib ointment
  swelling and redness of auricular skin (photograph): showed some redness, but not as much as in the target group
NF-κB p52
  nuclear NF-κB p52 band (immunoblotting): fainter

— US20260007634A1, “PHARMACEUTICAL COMPOSITIONS FOR THE TREATMENT OF ALLERGIC DISEASES” (KINKI UNIVERSITY, priority 2022, published 2026)
